# Measured values as given in patent publication US20090082395A1, “SOLUBLE EPOXIDE HYDROLASE INHIBITORS” (Arete Therapeutics, Inc., priority 2007, published 2009).
# Columns and labels:
# [1] = tested on: soluble epoxide hydrolase (sEH); assay: Fluorescent assay for mouse and human soluble epoxide hydrolase (CMNPC substrate); type: biochemical; details: recombinant sEH, species (mouse or human) not given
# Excerpt: Fluorescent Assay for Mouse and Human Soluble Epoxide Hydrolase
# Recombinant mouse sEH (MsEH) and human sEH (HsEH) were produced in a baculovirus expression system as previously reported. Grant et al., J. Biol. Chem., 268:17628-17633 (1993); Beetham et al., Arch. Biochem. Biophys., 305:197-201 (1993). The expressed proteins were purified from cell lysate by affinity chromatography. Wixtrom et al., Anal. Biochem., 169:71-80 (1988). Protein concentration was quantified using the Pierce BCA assay using bovine serum albumin as the calibrating standard. The preparations were at least 97% pure as judged by SDS-PAGE and scanning densitometry. They contained no detectable esterase or glutathione transferase activity which can interfere with the assay. The assay was also evaluated with similar results in crude cell lysates or homogenate of tissues.
# The IC50s for each inhibitor were according to the following procedure:
# Cyano(2-methoxynaphthalen-6-yl)methyl (3-phenyloxiran-2-yl)methyl carbonate (CMNPC; Jones P. D. et. al.; Analytical Biochemistry 2005; 343: pp. 66-75)
# Bis/Tris HCl 25 mM pH 7.0 containing 0.1 mg/mL of BSA (buffer A)
# CMNPC at 0.25 mM in DMSO.
# Mother solution of enzyme in buffer A (Mouse sEH at 6 μg/mL and Human sEH at 5 μg/mL). Inhibitor dissolved in DMSO at the appropriate concentration.
# In a black 96 well plate, fill all the wells with 150 μL of buffer A. Add 2 μL of DMSO in well A2 and A3, and then add 2 μL of inhibitor solution in A1 and A4 through A12. Add 150 μL of buffer A in row A, then mix several time and transfer 150 μL to row B. Repeat this operation up to row H. The 150 μL removed from row H go to the trash. Add 20 μL of buffer A in column 1 and 2, then add 20 μL of enzyme solution to column 3 to 12. Incubate the plate for 5 minutes in the plate reader at 30° C. During incubation prepare the working solution of substrate by mixing 3.68 mL of buffer A (4×0.920 mL) with 266 μL (2×133 μL) of substrate solution). At t=0, add 30 μL of working substrate solution with multi-channel pipette labeled “Briggs 303” and start the reading ([S]final: 5 μM). Read with ex: 330 nm (20 nm) and em: 465 nm (20 nm) every 30 second for 10 minutes. The velocities are used to analyze and calculate the IC50s.
SMILES,% Inh ([1]; compound concentration 500 nM) [%],melting point [°C],% Inh ([1]; compound concentration 50 nM) [%],% Inh ([1]; compound concentration 2000 nM) [%]
"Cc1nc2cc(NC(=O)Nc3cccc(C(F)(F)F)c3)ccc2o1 [Compound 12, 1-(2-methylbenzo[d]oxazol-5-yl)-3-(3-(trifluoromethyl)phenyl)urea]",93,184 to 186,,
"O=C(Nc1cccc(C(F)(F)F)c1)Nc1ccc2nc(C(F)(F)F)[nH]c2c1 [Compound 16, 1-(2-(trifluoromethyl)-1H-benzo[d]imidazol-5-yl)-3-(3-(trifluoromethyl)phenyl)urea]",85,213 to 215,,
"O=C(Nc1ccc(C(F)(F)F)cc1)Nc1ccc2c(c1)OC(F)(F)O2 [Compound 3, 1-(2,2-difluorobenzol[d][1,3]dioxol-5-yl)-3-(4-(trifluoromethyl)phenyl)urea]",,195 to 200,91,
"O=C(Nc1ccc2c(c1)OCCO2)NC12CC3CC(CC(C3)C1)C2 [Compound 2, 1-adamantan-1-yl-3-(2,3-dihydrobenzo[b][1,4]dioxin-6-yl)urea]",,,,98
"O=C(Nc1ccc(C(F)(F)F)cc1)Nc1ccc2ncccc2c1 [Compound 1, 1-(quinolin-6-yl)-3-(4-(trifluoromethyl)phenyl)urea]",,259 to 263,,98
"O=C(Nc1cccc(C(F)(F)F)c1)Nc1ccc2c(c1)COC2=O [Compound 17, 1-(1-oxo-1,3-dihydroisobenzofuran-5-yl)-3-(3-(trifluoromethyl)phenyl)urea]",,279 to 282,86,
"O=C(Nc1ccc2c(c1)OC(F)(F)O2)NC12CC3CC(CC(C3)C1)C2 [Compound 10, 1-adamantan-1-yl-3-(2,2-difluorobenzo[d][1,3]dioxol-5-yl)urea]",,213 to 215,99,
"O=C(Nc1ccc(Cl)cc1)Nc1ccc2c(c1)OC(F)(F)O2 [Compound 7, 1-(4-chlorophenyl)-3-(2,2-difluorobenzo[d][1,3]dioxol-5-yl)urea]",,231 to 233,95,
"O=C(Nc1ccc2[nH]c(C(F)(F)F)nc2c1)NC12CC3CC(CC(C3)C1)C2 [Compound 15, 1-adamantan-1-yl-3-(2-(trifluoromethyl)-1H-benzo[d]imidazol-5-yl)urea]",93,189 to 192,,
"Cc1nc2cc(NC(=O)Nc3ccc(C(F)(F)F)cc3)ccc2o1 [Compound 11, 1-(2-methylbenzo[d]oxazol-5-yl)-3-(4-(trifluoromethyl)phenyl)urea]",,240 to 243,98,
"O=C(Nc1ccc(C(F)(F)F)cc1)Nc1ccc2c(c1)COC2=O [Compound 18, 1-(1-oxo-1,3-dihydroisobenzofuran-5-yl)-3-(4-(trifluoromethyl)phenyl)urea]",,,87,
"O=C(Nc1ccc(C(F)(F)F)cc1)Nc1ccc2[nH]c(C(F)(F)F)nc2c1 [Compound 14, 1-(2-(trifluoromethyl)-1H-benzo[d]imidazol-5-yl)-3-(4-(trifluoromethyl)phenyl)urea]",,223 to 228,80,
"Cc1cc2cc(NC(=O)Nc3ccc(Cl)cc3)ccc2[nH]1 [Compound 6, 1-(4-chlorophenyl)-3-(2-methyl-1H-indol-5-yl)urea]",,257 to 260,89,
"O=C(Nc1cccc(C(F)(F)F)c1)Nc1ccc2c(c1)OC(F)(F)O2 [Compound 5, 1-(2,2-difluorobenzo[d][1,3]dioxol-5-yl)-3-(3-(trifluoromethyl)phenyl)urea]",89,,,
"Cn1ncc2cc(NC(=O)Nc3ccc(C(F)(F)F)cc3)ccc21 [Compound 8, 1-(1-methyl-1H-indazol-5-yl)-3-(4-(trifluoromethyl)phenyl)urea]",,252 to 254,92,
"Cc1cc2cc(NC(=O)NC34CC5CC(CC(C5)C3)C4)ccc2[nH]1 [Compound 9, 1-adamantan-1-yl-3-(2-methyl-1H-indol-5-yl)urea]",,146 to 152,85,
"Cc1nc2cc(NC(=O)NC34CC5CC(CC(C5)C3)C4)ccc2s1 [Compound 13, 1-adamantan-1-yl-3-(2-methylbenzo[d]thiazol-5-yl)urea]",,209 to 214,92,
"O=C(Nc1ccc(Cl)cc1)Nc1ccc2[nH]c(C(F)(F)F)nc2c1 [Compound 4, 1-(4-chlorophenyl)-3-(2-(trifluoromethyl)-1H-benzo[d]imidazol-5-yl)urea]",91,264 to 268,,
